Experimental data from patent US20250367166A1, “NEXT GENERATION DIPROVOCIMS THAT ACTIVATE THE INNATE AND ADAPTIVE IMMUNE RESPONSE” (The Scripps Research Institute, priority 2022, published 2025).
Where two headings read alike, the source gives them in different places.

Columns and labels:
TLR1/TLR2 [1] = target: TLR1/TLR2 (Homo sapiens, UniProt O60603+Q15399); assay: TNF-α release from PMA-differentiated human THP-1 cells (ELISA); conditions: for Emax: THP-1, 4 h, read-out: Efficacy (magnitude) of response versus diprovocim-1 (100%), THP-1;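 as to all read-outs here: cells exposed to graded compound concentrations for 4 h, TNF-α quantified in supernatant, LPS as positive and DMSO as negative control, values are duplicate means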
Sequence of TLR1/TLR2 (Homo sapiens, UniProt O60603+Q15399) (Q15399 25-786): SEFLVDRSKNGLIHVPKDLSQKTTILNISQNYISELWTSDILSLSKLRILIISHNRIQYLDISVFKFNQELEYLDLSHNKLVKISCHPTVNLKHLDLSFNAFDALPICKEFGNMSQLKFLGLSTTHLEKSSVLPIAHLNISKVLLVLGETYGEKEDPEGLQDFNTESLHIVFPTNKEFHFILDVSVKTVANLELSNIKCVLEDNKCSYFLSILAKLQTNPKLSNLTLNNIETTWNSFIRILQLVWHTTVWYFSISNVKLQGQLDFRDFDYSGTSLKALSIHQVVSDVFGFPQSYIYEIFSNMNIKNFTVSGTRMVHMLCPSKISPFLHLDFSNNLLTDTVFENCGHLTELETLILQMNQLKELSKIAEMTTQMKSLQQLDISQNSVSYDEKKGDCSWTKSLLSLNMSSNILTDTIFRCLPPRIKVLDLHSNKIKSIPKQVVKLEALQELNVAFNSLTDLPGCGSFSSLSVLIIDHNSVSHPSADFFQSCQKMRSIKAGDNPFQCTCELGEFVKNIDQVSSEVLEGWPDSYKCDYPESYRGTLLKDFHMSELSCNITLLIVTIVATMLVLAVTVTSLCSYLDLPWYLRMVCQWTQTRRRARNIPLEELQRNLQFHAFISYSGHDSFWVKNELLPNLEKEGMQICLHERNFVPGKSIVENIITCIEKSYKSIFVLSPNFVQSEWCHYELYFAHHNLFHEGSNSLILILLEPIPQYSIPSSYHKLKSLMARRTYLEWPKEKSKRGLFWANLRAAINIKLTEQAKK
Sequence of TLR1/TLR2 (Homo sapiens, UniProt O60603+Q15399) (O60603 21-784): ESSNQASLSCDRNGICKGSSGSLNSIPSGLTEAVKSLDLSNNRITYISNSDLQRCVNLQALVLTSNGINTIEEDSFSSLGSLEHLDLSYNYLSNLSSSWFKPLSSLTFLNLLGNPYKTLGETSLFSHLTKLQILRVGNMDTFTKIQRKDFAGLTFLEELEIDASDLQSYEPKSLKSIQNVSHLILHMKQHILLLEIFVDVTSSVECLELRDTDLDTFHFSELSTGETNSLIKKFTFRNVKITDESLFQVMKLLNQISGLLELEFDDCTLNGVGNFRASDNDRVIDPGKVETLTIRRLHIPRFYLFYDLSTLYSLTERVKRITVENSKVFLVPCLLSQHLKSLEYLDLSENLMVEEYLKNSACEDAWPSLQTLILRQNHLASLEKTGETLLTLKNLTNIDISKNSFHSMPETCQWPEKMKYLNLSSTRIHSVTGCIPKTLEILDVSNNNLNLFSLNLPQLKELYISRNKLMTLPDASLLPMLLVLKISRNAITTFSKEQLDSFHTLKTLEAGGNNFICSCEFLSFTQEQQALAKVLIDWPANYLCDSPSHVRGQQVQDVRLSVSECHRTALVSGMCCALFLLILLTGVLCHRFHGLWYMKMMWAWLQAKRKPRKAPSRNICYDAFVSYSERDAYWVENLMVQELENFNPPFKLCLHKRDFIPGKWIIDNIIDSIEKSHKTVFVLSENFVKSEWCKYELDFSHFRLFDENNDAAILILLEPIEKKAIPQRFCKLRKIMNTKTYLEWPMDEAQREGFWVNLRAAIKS
Procedure: THP-1 (American Type Culture Collection) cells, a human monocytic leukemia cell line, were differentiated by treatment with 100 nM PMA (Sigma) in Roswell Park Memorial Institute (RPMI) cell culture medium [RPMI containing 10% vol/vol FBS (Gemini Bio Products), 1% penicillin and streptomycin (Life Technologies)] for 24 h. After that, the cells were washed with PBS and cultured in fresh RPMI cell culture medium for 24 h before use in studies. PMA-differentiated THP-1 cells were seeded onto 96-well plates at 0.5×10^5 cells per well and treated with systematically varied concentrations of the candidate compounds (dissolved in DMSO, and the final assay DMSO concentration (0.1%) was kept constant in all experiments) for 4 h. Ultra-pure LPS (dissolved in H2O, Enzo Life Sciences) was assessed alongside the compounds as a positive control and DMSO treated control was used as a negative control. Human TNF-α in the supernatants was measured by ELISA (eBioscience). This assay was used for establishing dose-response curves and measured EC50's. EC50's were calculated by Graphpad Prism. All data is the mean of duplicates and SD is within +10% of mean.

TLR1/TLR2 [2] = target: TLR1/TLR2 (Mus musculus, UniProt Q9EPQ1+Q9QUN7); assay: TNF-α release from thioglycolate-elicited mouse peritoneal macrophages (ELISA); conditions: for Emax: 4 h, read-out: Efficacy (magnitude) of response versus diprovocim-1 (100%), mouse macrophages
Sequence of TLR1/TLR2 (Mus musculus, UniProt Q9EPQ1+Q9QUN7) (Q9EPQ1 26-795): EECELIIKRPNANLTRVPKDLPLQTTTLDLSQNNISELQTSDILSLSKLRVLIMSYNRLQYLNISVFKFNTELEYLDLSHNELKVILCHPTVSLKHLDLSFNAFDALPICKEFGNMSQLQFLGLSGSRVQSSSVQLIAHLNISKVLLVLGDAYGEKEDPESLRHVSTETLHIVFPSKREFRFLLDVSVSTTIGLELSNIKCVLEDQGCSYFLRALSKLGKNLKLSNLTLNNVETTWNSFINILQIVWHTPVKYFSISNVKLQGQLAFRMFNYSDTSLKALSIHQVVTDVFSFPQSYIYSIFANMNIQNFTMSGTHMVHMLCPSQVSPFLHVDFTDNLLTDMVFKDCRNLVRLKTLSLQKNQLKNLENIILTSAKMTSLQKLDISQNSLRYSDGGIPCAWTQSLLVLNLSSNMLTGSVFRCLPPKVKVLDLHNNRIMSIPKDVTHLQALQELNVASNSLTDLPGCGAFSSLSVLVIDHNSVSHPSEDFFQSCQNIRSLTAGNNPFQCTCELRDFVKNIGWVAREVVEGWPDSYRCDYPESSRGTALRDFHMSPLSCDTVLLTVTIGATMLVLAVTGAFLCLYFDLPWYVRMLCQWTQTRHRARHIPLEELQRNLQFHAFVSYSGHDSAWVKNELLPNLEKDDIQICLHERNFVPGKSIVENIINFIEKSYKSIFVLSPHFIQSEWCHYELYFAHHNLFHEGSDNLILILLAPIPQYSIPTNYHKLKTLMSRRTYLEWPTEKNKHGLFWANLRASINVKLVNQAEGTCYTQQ
Sequence of TLR1/TLR2 (Mus musculus, UniProt Q9EPQ1+Q9QUN7) (Q9QUN7 25-784): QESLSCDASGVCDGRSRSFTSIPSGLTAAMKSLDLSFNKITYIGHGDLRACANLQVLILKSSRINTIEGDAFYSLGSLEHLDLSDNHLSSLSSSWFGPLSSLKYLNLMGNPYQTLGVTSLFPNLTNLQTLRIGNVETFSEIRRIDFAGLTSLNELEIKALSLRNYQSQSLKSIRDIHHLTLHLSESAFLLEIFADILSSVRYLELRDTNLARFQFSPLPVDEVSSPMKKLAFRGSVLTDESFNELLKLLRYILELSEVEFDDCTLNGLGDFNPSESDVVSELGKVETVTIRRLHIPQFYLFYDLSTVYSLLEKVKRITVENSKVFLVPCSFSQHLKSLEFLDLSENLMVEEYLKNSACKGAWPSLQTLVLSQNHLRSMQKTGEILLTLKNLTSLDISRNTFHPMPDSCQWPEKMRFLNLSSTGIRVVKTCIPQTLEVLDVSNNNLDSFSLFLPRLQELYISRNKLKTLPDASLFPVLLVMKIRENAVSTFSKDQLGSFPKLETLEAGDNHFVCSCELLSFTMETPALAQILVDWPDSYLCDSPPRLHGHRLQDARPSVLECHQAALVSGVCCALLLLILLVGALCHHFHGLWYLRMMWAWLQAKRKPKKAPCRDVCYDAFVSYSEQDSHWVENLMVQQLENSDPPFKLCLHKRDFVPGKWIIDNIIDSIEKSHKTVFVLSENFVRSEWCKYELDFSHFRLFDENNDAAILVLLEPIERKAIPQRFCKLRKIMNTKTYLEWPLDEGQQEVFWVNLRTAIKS

[3] = read-out: EC50 (nM) (THP-1): EC50 TNF-α release from human THP-1 cells, Table 3
[4] = read-out: EC50 (nM) (mouse): EC50 TNF-α release from mouse macrophages, Table 3
[5] = read-out: EC50 (nM) (THP-1): EC50 TNF-α release from human THP-1 cells, Table 1
[6] = read-out: EC50 (nM) (mouse): EC50 TNF-α release from mouse macrophages, Table 1
[7] = read-out: EC50 (nM) (THP-1): EC50 TNF-α release from human THP-1 cells, Table 6
[8] = read-out: EC50 (nM) (mouse): EC50 TNF-α release from mouse macrophages, Table 6
[9] = read-out: EC50 (nM) (THP-1): EC50 TNF-α release from human THP-1 cells, Table 5
[10] = read-out: EC50 (nM) (mouse): EC50 TNF-α release from mouse macrophages, Table 5

Structure (SMILES) | Emax (TLR1/TLR2 [1]) [%] | EC50 (TLR1/TLR2 [1]; [3]) [nM] | Emax (TLR1/TLR2 [2]) [%] | EC50 (TLR1/TLR2 [2]; [4]) [nM] | EC50 (TLR1/TLR2 [1]; [9]) [nM] | EC50 (TLR1/TLR2 [2]; [10]) [nM] | further results
COC(=O)CCCCCNC(=O)[C@@H]1CN(C(=O)c2ccc(C(=O)N3C[C@@H](C(=O)N[C@H]4C[C@@H]4c4ccccc4)[C@H](C(=O)N[C@H]4C[C@@H]4c4ccccc4)C3)cc2)C[C@H]1C(=O)N[C@H]1C[C@@H]1c1ccccc1 [Compound 6, Methyl 6-((3S,4S)-1-(4-((3S,4S)-3,4-bis(((1S,2R)-2-phenylcyclopropyl)carbamoyl)pyrrolidine-1-carbonyl)-benzoyl)-4-(((1S,2R)-2-phenylcyclopropyl)carbamoyl)-pyrrolidine-3-carboxamido)-hexanoate] |  |  |  |  |  |  | EC50 (TLR1/TLR2 [1]; [5]): 45 nM; EC50 (TLR1/TLR2 [2]; [6]): 1100 nM
CC(C)(C)Oc1ccc(C(=O)OCCCCCCCCCCCCNC(=O)[C@@H]2CN(C(=O)c3ccc(C(=O)N4C[C@@H](C(=O)N[C@H]5C[C@@H]5c5ccccc5)[C@H](C(=O)N[C@H]5C[C@@H]5c5ccccc5)C4)cc3)C[C@H]2C(=O)N[C@H]2C[C@@H]2c2ccccc2)cc1 [Compound 76, 12-((3S,4S)-1-(4-((3S,4S)-3,4-Bis(((1S,2R)-2-phenylcyclopropyl)carbamoyl)pyrrolidine-1-carbonyl)benzoyl)-4-(((1S,2R)-2-phenyl-cyclopropyl)carbamoyl)pyrrolidine-3-carboxamido)-dodecyl 4-(tert-butoxy)benzoate] | < 50 |  | 150 |  |  |  | EC50 (TLR1/TLR2 [1]; [7]): 27 nM; EC50 (TLR1/TLR2 [2]; [8]): 540 nM
CN(CC(=O)OCCCCCCCCCCCCNC(=O)[C@@H]1CN(C(=O)c2ccc(C(=O)N3C[C@@H](C(=O)N[C@H]4C[C@@H]4c4ccccc4)[C@H](C(=O)N[C@H]4C[C@@H]4c4ccccc4)C3)cc2)C[C@H]1C(=O)N[C@H]1C[C@@H]1c1ccccc1)C(=O)OC(C)(C)C [Compound 70, 12-((3S,4S)-1-(4-((3S,4S)-3,4-Bis(((1S,2R)-2-phenyl-cyclopropyl)carbamoyl)pyrrolidine-1-carbonyl)-benzoyl)-4-(((1S,2R)-2-phenylcyclopropyl)carbamoyl)-pyrrolidine-3-carboxamido)-dodecyl 2-((tert-butoxycarbonyl)(methyl)amino)acetate] | 100 |  | 110 |  | 1.7 | 17 | 
Nc1ccc(C(=O)OCCCCCCCCCCCCNC(=O)[C@@H]2CN(C(=O)c3ccc(C(=O)N4C[C@@H](C(=O)N[C@H]5C[C@@H]5c5ccccc5)[C@H](C(=O)N[C@H]5C[C@@H]5c5ccccc5)C4)cc3)C[C@H]2C(=O)N[C@H]2C[C@@H]2c2ccccc2)cc1 [Compound 74, 12-((3S,4S)-1-(4-((3S,4S)-3,4-Bis(((1S,2R)-2-phenyl-cyclopropyl)carbamoyl)pyrrolidine-1-carbonyl)benzoyl)-4-(((1S,2R)-2-phenylcyclopropyl)carbamoyl)-pyrrolidine-3-carboxamido)-dodecyl 4-aminobenzoate] | 100 |  | 300 |  |  |  | EC50 (TLR1/TLR2 [1]; [7]): 0.05 nM; EC50 (TLR1/TLR2 [2]; [8]): 0.67 nM
CC(C)(C)OC(=O)N[C@@H](Cc1ccccc1)C(=O)OCCCCCCCCCCCCNC(=O)[C@@H]1CN(C(=O)c2ccc(C(=O)N3C[C@@H](C(=O)N[C@H]4C[C@@H]4c4ccccc4)[C@H](C(=O)N[C@H]4C[C@@H]4c4ccccc4)C3)cc2)C[C@H]1C(=O)N[C@H]1C[C@@H]1c1ccccc1 [Compound 63, (S)-12-((3S,4S)-1-(4-((3S,4S)-3,4-Bis(((1S,2R)-2-phenylcyclopropyl)carbamoyl)pyrrolidine-1-carbonyl)-benzoyl)-4-(((1S,2R)-2-phenylcyclopropyl)carbamoyl)-pyrrolidine-3-carboxamido)-dodecyl 2-((tert-butoxy-carbonyl)amino)-3-phenylpropanoate] | 100 |  | 220 |  | 40 | 40 | 
CC(C)(C)OC(=O)NCC(=O)NCC(=O)OCCCCCCCCCCCCNC(=O)[C@@H]1CN(C(=O)c2ccc(C(=O)N3C[C@@H](C(=O)N[C@H]4C[C@@H]4c4ccccc4)[C@H](C(=O)N[C@H]4C[C@@H]4c4ccccc4)C3)cc2)C[C@H]1C(=O)N[C@H]1C[C@@H]1c1ccccc1 [Compound 72, 12-((3S,4S)-1-(4-((3S,4S)-3,4-Bis(((1S,2R)-2-phenyl-cyclopropyl)carbamoyl)pyrrolidine-1-carbonyl)benzoyl)-4-(((1S,2R)-2-phenylcyclopropyl)carbamoyl)pyrrolidine-3-carboxamido)-dodecyl 2-(2-((tert-butoxycarbonyl)amino)acetamido)acetate] | 110 |  | 110 |  | 0.52 | 2.5 | 

Second part, led by results:

Emax (TLR1/TLR2 [1]) [%] | EC50 (TLR1/TLR2 [1]; [3]) [nM] | Emax (TLR1/TLR2 [2]) [%] | EC50 (TLR1/TLR2 [2]; [4]) [nM] | Structure (SMILES) | EC50 (TLR1/TLR2 [1]; [9]) [nM] | EC50 (TLR1/TLR2 [2]; [10]) [nM] | further results
100 | 15 | 270 | 1.8 | CC(C)(C)OC(=O)COCCCCCCCCCCCCNC(=O)[C@@H]1CN(C(=O)c2ccc(C(=O)N3C[C@@H](C(=O)N[C@H]4C[C@@H]4c4ccccc4)[C@H](C(=O)N[C@H]4C[C@@H]4c4ccccc4)C3)cc2)C[C@H]1C(=O)N[C@H]1C[C@@H]1c1ccccc1 [Compound 49, tert-Butyl 2-((12-((3S,4S)-1-(4-((3S,4S)-3,4-bis(((1S,2R)-2-phenylcyclopropyl)carbamoyl)-pyrrolidine-1-carbonyl)benzoyl)-4-(((1S,2R)-2-phenylcyclopropyl)carbamoyl)pyrrolidine-3-carboxamido)dodecyl)oxy)acetate] |  |  | 
130 | 0.06 | 220 | 5.3 | O=C(COCc1ccccc1)OCCCCCCCCCCCCNC(=O)[C@@H]1CN(C(=O)c2ccc(C(=O)N3C[C@@H](C(=O)N[C@H]4C[C@@H]4c4ccccc4)[C@H](C(=O)N[C@H]4C[C@@H]4c4ccccc4)C3)cc2)C[C@H]1C(=O)N[C@H]1C[C@@H]1c1ccccc1 [Compound 46, 12-((3S,4S)-1-(4-((3S,4S)-3,4-Bis(((1S,2R)-2-phenylcyclopropyl)carbamoyl)pyrrolidine-1-carbonyl)benzoyl)-4-(((1S,2R)-2-phenylcyclopropyl)-carbamoyl)pyrrolidine-3-carboxamido)-dodecyl 2-(benzyloxy)acetate] |  |  | EC50 (TLR1/TLR2 [1]): 0.05 to 0.2 nM; EC50 (TLR1/TLR2 [2]): 0.7 to 5 nM
110 |  | 120 |  | NC(=O)CCCCCCCCCCCNC(=O)[C@@H]1CN(C(=O)c2ccc(C(=O)N3C[C@@H](C(=O)N[C@H]4C[C@@H]4c4ccccc4)[C@H](C(=O)N[C@H]4C[C@@H]4c4ccccc4)C3)cc2)C[C@H]1C(=O)N[C@H]1C[C@@H]1c1ccccc1 [Compound 12, (3S,4S)—N^3-(12-Amino-12-oxododecyl)-1-(4-((3S,4S)-3,4-bis(((1S,2R)-2-phenylcyclopropyl)-carbamoyl)-pyrrolidine-1-carbonyl)benzoyl)-N^4-((1S,2R)-2-phenyl-cyclopropyl)pyrrolidine-3,4-dicarboxamide] |  |  | EC50 (TLR1/TLR2 [1]; [5]): 0.9 nM; EC50 (TLR1/TLR2 [2]; [6]): 60 nM
100 | 0.1 | 410 | 40 | O=C(CNC(=O)OCc1ccccc1)OCCCCCCCCCCCCNC(=O)[C@@H]1CN(C(=O)c2ccc(C(=O)N3C[C@@H](C(=O)N[C@H]4C[C@@H]4c4ccccc4)[C@H](C(=O)N[C@H]4C[C@@H]4c4ccccc4)C3)cc2)C[C@H]1C(=O)N[C@H]1C[C@@H]1c1ccccc1 [Compound 36, 12-((3S,4S)-1-(4-((3S,4S)-3,4-Bis(((1S,2R)-2-phenyl-cyclopropyl)carbamoyl)pyrrolidine-1-carbonyl)-benzoyl)-4-(((1S,2R)-2-phenylcyclopropyl)carbamoyl)-pyrrolidine-3-carboxamido)-dodecyl 2-(((benzyloxy)carbonyl)-amino)acetate] |  |  | 
100 |  | 60 |  | O=C(O)/C=C/C(=O)NCC(=O)OCCCCCCCCCCCCNC(=O)[C@@H]1CN(C(=O)c2ccc(C(=O)N3C[C@@H](C(=O)N[C@H]4C[C@@H]4c4ccccc4)[C@H](C(=O)N[C@H]4C[C@@H]4c4ccccc4)C3)cc2)C[C@H]1C(=O)N[C@H]1C[C@@H]1c1ccccc1 [Compound 82, (E)-4-((2-((12-((3S,4S)-1-(4-((3S,4S)-3,4-Bis(((1S,2R)-2-phenylcyclopropyl)carbamoyl)-pyrrolidine-1-carbonyl)benzoyl)-4-(((1S,2R)-2-phenylcyclopropyl)carbamoyl)pyrrolidine-3-carboxamido)dodecyl)oxy)-2-oxoethyl)amino)-4-oxobut-2-enoic acid] |  |  | EC50 (TLR1/TLR2 [1]; [7]): 0.32 nM; EC50 (TLR1/TLR2 [2]; [8]): 7 nM
100 | 0.25 | 120 | 4.5 | N#CCC(=O)OCCCCCCCCCCCCNC(=O)[C@@H]1CN(C(=O)c2ccc(C(=O)N3C[C@@H](C(=O)N[C@H]4C[C@@H]4c4ccccc4)[C@H](C(=O)N[C@H]4C[C@@H]4c4ccccc4)C3)cc2)C[C@H]1C(=O)N[C@H]1C[C@@H]1c1ccccc1 [Compound 33, 12-((3S,4S)-1-(4-((3S,4S)-3,4-Bis(((1S,2R)-2-phenylcyclopropyl)carbamoyl)pyrrolidine-1-carbonyl)benzoyl)-4-(((1S,2R)-2-phenylcyclopropyl)-carbamoyl)pyrrolidine-3-carboxamido)dodecyl 2-cyanoacetate] |  |  | 
100 |  | 220 |  | CC(C)(C)OC(=O)NNC(=O)OCCCCCCCCCCCCNC(=O)[C@@H]1CN(C(=O)c2ccc(C(=O)N3C[C@@H](C(=O)N[C@H]4C[C@@H]4c4ccccc4)[C@H](C(=O)N[C@H]4C[C@@H]4c4ccccc4)C3)cc2)C[C@H]1C(=O)N[C@H]1C[C@@H]1c1ccccc1 [Compound 71, 1-(12-((3S,4S)-1-(4-((3S,4S)-3,4-Bis(((1S,2R)-2-phenylcyclopropyl)carbamoyl)pyrrolidine-1-carbonyl)-benzoyl)-4-(((1S,2R)-2-phenylcyclopropyl)carbamoyl)-pyrrolidine-3-carboxamido)-dodecyl) 2-tert-butyl hydrazine-1,2-dicarboxylate] | 5 | 25 | 
